Assay results taken from publication PMC10489644, “In Vitro Evaluation of the Potential for Drug Interactions by Salidroside” (Nutrients, 2023).
“And” between values parts separate entries of the source, which are not always exact repeats. Equal entries are not always repeated. “Also recorded” adds a separate entry of the source. Where two headings read alike, the source gives them in different places.

Columns and labels:
MAO-A = test system: MAO-A; parameters: method as in PMID 19168123; settings: isolated compound at 10 µM; cited from earlier work
CYP1A2 = target: T1, CYP1A2 (Homo sapiens, UniProt P05177); assay: CYP direct inhibition in human liver microsomes; format: in vitro ADME; settings: probe phenacetin, mean of N = 2
T1 construct: Mixed human liver microsomes were purchased from BioreclamationIVT; tissue BioreclamationIVT; host or cells: mixed-donor pool of human liver microsomes (Lot ZZQ)
T1 sequence (P05177 1-516): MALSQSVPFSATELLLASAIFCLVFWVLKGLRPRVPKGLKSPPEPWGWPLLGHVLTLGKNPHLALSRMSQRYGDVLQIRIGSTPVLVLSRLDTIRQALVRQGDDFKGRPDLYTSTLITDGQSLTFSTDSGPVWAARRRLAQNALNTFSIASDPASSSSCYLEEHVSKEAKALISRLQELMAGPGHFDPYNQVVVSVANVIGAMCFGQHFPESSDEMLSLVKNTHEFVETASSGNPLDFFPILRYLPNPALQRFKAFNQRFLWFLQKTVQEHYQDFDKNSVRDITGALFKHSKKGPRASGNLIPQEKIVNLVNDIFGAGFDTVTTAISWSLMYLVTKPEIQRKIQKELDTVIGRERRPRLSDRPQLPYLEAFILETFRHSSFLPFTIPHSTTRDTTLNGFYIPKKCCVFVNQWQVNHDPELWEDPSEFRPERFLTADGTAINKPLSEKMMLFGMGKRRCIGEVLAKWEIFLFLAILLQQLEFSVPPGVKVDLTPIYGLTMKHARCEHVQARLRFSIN

CYP3A4 = settings: for % of Positive Control / Mean Fold Induction: human, 48 h
[1] = parameters: method as in PMID 35684130; settings: multiple oral dose rat study; cited from earlier work
CYP2C19 = CYP2C19 (Homo sapiens, UniProt P33261); assay: CYP direct inhibition in human liver microsomes
Method: (§1) Test compound/controls working solution or DMSO were added in 238.5 µL of liver microsomes working solution, mixed well by pipetting several times and pre-incubated in a 37 °C shaking water bath for 5 min. Following the pre-incubation, 60 µL of NADPH working solution were added, mixed well by pipetting several times, and incubated in a 37 °C shaking water bath for 10 min. Following the incubation, 300 µL of quenching solution were immediately added and vortexed for ~20 s to mix. All samples were centrifuged at 4000 rpm for 15 min at 4 °C and then the supernatant was transferred for LC-MS/MS analysis. IC50 values were determined by the Hill slope equation using Graph Pad Prism.
(§2) For competitive and time-dependent CYP inhibition, the peak area ratios (PAR) of analyte/internal standard were used to semi-quantitatively determine the concentration of acetaminophen (CYP1A2 activity), 4’-hydroxydiclofenac (CYP2C9), 4’-hydroxymephenytoin (CYP2C19), dextrorphan (CYP2D6), 1’-hydroxymidazolam (CYP3A4), 6β-hydroxytestosterone (CYP3A4), hydroxybupropion (CYP2B6), and N-desethylamodiaquine (CYP2C8), with terfenadine as the internal standard by LC-MS/MS method. The HPLC-MS system utilized an Acquity UPLC system and Sciex API 4000 mass spectrometer in ESI positive mode, with quantitation employing MRM. Samples were injected onto an Atlantis T3 5 μM column (2.1 x 50 mm). […]

[2] = parameters: method as in PMID 35684130; settings: cited from earlier work
[3] = Rat pharmacokinetics after IV or oral dosing; format: in vivo, Male Sprague–Dawley rats; settings: fa = fb/((1 − CL/Qh) × 100%)
Method: An estimation of the maximum plasma concentration of salidroside in humans was made from the pharmacokinetics in rats after oral dosing and the recommended human daily dose of salidroside of 60 mg (two 30 mg capsules). Male Sprague–Dawley rats were dosed either with IV or orally at 12 mg/kg (N = 6/group). Salidroside was moderately cleared (21 mL/min/kg) and well absorbed orally.

CYP2C9 [4] = target: T2, CYP2C9 (Homo sapiens, UniProt P11712); settings: microsomes
Method: (§3) Incubation without 30 min pre-incubation, 178.5 µL of liver microsomes working was pre-incubated in a 37 °C water bath for 30 min. After the pre-incubation, 1.5 μL of test compound or control compound working solution, 60 μL of substrate working solution, and 60 μL of NADPH working solution were added; then, the reaction mixture was mixed by pipetting up and down and then incubated at 37 °C for 10 min. Incubation with 30 min pre-incubation. Next, 1.5 μL of test compound or control compound working solutions and 60 μL of NADPH working solution were added into 178.5 μL of liver microsome working solution, then the reaction mixture was mixed by pipetting up and down and then pre-incubated at 37 °C for 30 min. […]
(§4) For competitive and time-dependent CYP inhibition, the peak area ratios (PAR) of analyte/internal standard were used to semi-quantitatively determine the concentration of acetaminophen (CYP1A2 activity), 4’-hydroxydiclofenac (CYP2C9), 4’-hydroxymephenytoin (CYP2C19), dextrorphan (CYP2D6), 1’-hydroxymidazolam (CYP3A4), 6β-hydroxytestosterone (CYP3A4), hydroxybupropion (CYP2B6), and N-desethylamodiaquine (CYP2C8), with terfenadine as the internal standard by LC-MS/MS method. The HPLC-MS system utilized an Acquity UPLC system and Sciex API 4000 mass spectrometer in ESI positive mode, with quantitation employing MRM. […]

CYP2D6 = CYP2D6 (Homo sapiens, UniProt P10635); assay: Time-dependent inhibition (IC50 shift) in human liver microsomes
Method: as §3, §4

CYP2C9 [5] = target: T2, CYP2C9; assay: CYP direct inhibition in human liver microsomes
Method: as §1, §2

OATP1B1 = target: T3, OATP1B1 (Homo sapiens, UniProt Q9Y6L6); assay: Uptake transport inhibition in HEK293-OATP1B1 cells
T3 sequence (Q9Y6L6 1-691): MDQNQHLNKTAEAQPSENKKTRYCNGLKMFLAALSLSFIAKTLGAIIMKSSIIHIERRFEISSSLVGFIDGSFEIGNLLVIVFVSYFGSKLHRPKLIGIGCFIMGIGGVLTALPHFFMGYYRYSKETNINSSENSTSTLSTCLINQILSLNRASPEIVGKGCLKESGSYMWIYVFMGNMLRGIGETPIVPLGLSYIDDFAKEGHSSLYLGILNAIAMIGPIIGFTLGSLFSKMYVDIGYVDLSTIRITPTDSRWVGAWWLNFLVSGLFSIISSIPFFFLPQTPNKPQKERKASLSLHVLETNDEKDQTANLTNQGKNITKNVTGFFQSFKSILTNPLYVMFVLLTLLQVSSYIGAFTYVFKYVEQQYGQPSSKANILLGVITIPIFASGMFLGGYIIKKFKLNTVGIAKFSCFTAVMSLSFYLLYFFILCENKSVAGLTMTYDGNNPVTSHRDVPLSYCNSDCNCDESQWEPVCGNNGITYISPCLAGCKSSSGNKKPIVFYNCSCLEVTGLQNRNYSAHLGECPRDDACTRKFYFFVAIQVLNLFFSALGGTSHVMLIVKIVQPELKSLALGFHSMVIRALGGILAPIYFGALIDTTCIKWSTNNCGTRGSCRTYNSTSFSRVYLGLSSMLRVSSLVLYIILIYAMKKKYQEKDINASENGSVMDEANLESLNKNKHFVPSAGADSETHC
Method: HEK293-OATP1B1 and OATP1B3 cells were diluted to 1 × 10^6 cells/mL with DMEM supplemented with 1% non-essential amino acid (NEAA), 10% fetal bovine serum (FBS), 1% PS solution (100 U/mL penicillin-G and 100 μg/mL streptomycin), and seeded on a 96-well BioCoat™ poly-d-lysine plate at a density of 1 × 10^6 cells/mL. […] Once the cells were anchored on the plate, the cell culture was replaced with DMEM containing 10% FBS and 1% PS solution (100 U/mL penicillin-G and 100 μg/mL streptomycin solution) and cultured one day for the uptake and inhibition studies. The cell culture medium was removed from the 96-well plate, then rinsed twice with 0.1 mL/well of pre-warmed transport buffer. The transporter cells containing pre-incubation solution were pre-incubated at 37 °C for 30 min. Then the pre-incubation solution was removed and replaced with 0.1 mL/well of dosing solution containing a substrate, respectively (blank transporter buffer containing a substrate, transport buffer containing a substrate and PC, and transport buffer containing a substrate and salidroside). Then, the transporter cells were incubated at 37 °C for 2 min. After incubation, all solutions in the cells were discarded and rinsed with 0.10 mL/well of ice-cold transport buffer (4 °C) three times. […] All samples were shaken and centrifuged at 4000 rpm at 4 °C for 15 min and the supernatant was removed for future analysis by LC-MS/MS.
Enzyme activity (%) = PAR with compound/PAR vehicle × 100.
Estradiol-17β-glucuronide (substrate) was incubated with an OATP1B1-transfected HEK293 cell monolayer in the presence or absence of salidroside at concentrations up to 100 µM.

[6] = parameters: method as in PMID 22139684, PMID 22525439; settings: rats, two studies; cited from earlier work

T2 sequence (P11712 whole entry): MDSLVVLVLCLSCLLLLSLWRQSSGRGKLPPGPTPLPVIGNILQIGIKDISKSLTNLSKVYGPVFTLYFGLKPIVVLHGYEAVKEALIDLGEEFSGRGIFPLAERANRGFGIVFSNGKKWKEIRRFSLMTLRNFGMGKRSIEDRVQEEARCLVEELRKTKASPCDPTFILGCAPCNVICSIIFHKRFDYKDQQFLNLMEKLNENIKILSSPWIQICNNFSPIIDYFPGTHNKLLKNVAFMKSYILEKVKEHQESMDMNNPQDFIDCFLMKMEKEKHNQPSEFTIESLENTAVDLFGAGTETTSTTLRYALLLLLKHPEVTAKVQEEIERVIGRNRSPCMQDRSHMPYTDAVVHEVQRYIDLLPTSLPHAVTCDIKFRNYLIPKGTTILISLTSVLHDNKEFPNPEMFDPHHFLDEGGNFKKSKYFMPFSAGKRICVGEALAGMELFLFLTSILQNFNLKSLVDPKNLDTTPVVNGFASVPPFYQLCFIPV
Chain of CYP2D6 (P10635 whole entry): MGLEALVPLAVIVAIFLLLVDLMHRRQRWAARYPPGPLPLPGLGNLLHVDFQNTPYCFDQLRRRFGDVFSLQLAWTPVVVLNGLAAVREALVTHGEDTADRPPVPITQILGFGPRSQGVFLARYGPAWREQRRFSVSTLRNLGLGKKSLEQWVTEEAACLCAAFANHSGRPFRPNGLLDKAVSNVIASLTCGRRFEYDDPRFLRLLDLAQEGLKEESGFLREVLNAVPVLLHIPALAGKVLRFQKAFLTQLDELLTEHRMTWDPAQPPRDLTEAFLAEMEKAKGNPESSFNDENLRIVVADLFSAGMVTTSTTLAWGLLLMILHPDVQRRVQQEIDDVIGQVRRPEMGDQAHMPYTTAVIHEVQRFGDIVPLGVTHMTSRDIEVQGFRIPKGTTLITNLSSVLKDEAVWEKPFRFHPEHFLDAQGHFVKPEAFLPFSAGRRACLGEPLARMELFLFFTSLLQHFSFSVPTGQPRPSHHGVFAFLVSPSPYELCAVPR
Chain of CYP2C19 (P33261 whole entry): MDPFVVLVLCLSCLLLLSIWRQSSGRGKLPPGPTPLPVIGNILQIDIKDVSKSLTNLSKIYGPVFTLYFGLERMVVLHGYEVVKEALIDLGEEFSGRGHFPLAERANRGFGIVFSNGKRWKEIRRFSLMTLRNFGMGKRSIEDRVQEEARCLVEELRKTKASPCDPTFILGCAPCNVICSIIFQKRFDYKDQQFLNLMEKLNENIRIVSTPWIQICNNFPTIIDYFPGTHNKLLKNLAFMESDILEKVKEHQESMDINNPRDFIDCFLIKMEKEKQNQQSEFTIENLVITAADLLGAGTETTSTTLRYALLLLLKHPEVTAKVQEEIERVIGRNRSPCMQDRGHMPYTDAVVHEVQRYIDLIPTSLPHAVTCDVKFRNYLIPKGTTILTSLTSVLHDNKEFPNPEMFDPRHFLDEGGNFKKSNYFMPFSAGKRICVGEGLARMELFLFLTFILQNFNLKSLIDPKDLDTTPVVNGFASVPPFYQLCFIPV

OC[C@H]1O[C@@H](OCCc2ccc(O)cc2)[C@H](O)[C@@H](O)[C@@H]1O [Salidroside]
inhibition of MAO-A (MAO-A): inactive | IC50 (CYP1A2): > 50 µM | Mean Enzyme Activity (CYP3A4; CYP3A4, Lot# SNP, 0.1 µM, N = 3): 1.82 pmol/10^6 cells/min | % of Positive Control (CYP3A4; 0.1 µM): −15% | Mean Fold Induction (CYP3A4; 0.1 µM): 2.07 fold | % of Positive Control (CYP3A4; 1 µM): −26% | Mean Fold Induction (CYP3A4; 1 µM): 1.55 fold | % of Positive Control (CYP3A4; 10 µM): −14% | Mean Fold Induction (CYP3A4; 10 µM): 2.13 fold | no observed adverse effect level (NOAEL) [1]: ≥ 2000 mg/kg/day | IC50 (CYP2C19): > 50 µM | genotoxicity [2]: not genotoxic | estimated oral absorption (fa) [3]: 46% | IC50 Shift (CYP2C9 [4]): no shift | IC50 (CYP2D6): > 50 µM | IC50 (CYP2C9 [5]): > 50 µM | IC50 (OATP1B1): > 100 µM | activity at 2 min, 100 µM (OATP1B1; human): 84.4% | inhibition at 2 min, 100 µM (OATP1B1; human): 15.5% | mean % of control activity / inhibition of OATP1B1 (OATP1B1; up to concentrations of 33.3 mM, 33.3 µM): unchanged; also recorded: no inhibition | percentage recovery of an IV dose as unchanged in the urine [6]: 53.7% and 64%
